From US20170327598A1, “SINGLE DOMAIN ANTIBODIES DIRECTED AGAINST INTRACELLULAR ANTIGENS” (SINGH MOLECULAR MEDICINE, LLC, priority 2014, published 2017)
Values joined by “and” are separate entries in the source; they are usually repeats but may differ in a detail not shown here. Equal values may be shown once. Read-outs that look alike come from different tables or passages of the source.

Key:
MDA-MB-468 cells = experiment: MTT proliferation assay, MDA-MB-468; assay type: cell-based, human; conditions: MDA-MB-468, 72 hours
SJSA cells = experiment: Anti-proliferative effect, SJSA cells; assay type: cell-based; conditions: for Absorbance ± S.E.: 72 hr
U87 mg cells = experiment: Anti-proliferative effect, U87 mg cells; assay type: cell-based; conditions: for Absorbance ± S.E. / % Inhibition: 72 hr
MDA-MB 231 cells = experiment: Internalization of sdAb, anti-His tag staining, MDA-MB 231; assay type: cell-based; conditions: 18 hours
Method: (§1) An anti-HIV-1 Reverse Transcriptase (RT) sdAb was used as a negative control.
(§2) The slides were incubated for 18 hours after sdAb addition. The chambers were briefly rinsed with media and fixed in ice-cold methanol for 5-10 min. The chambers were then dried and stained with a fluorescent anti-His tag antibody (1:200)(Novus Biologicals, Littleton, Colo.) for 45 min at room temperature. The slides were rinsed in PBS for 5 minutes and mounted.

PANC-1 cells = experiment: Internalization of sdAb, anti-His tag staining, PANC-1; assay type: cell-based; conditions: 18 hours
Method: as §1, §2

human KRAS = experiment: Biacore 3000 protein binding, KRAS ligand immobilized (Example 22); conditions: sdAb as analyte
[1] = system: rabbit anti-llama biotinylated antibody or his-probe (H-3) biotin labeled antibody; experiment: ELISA with sdAbs coated, binding of secondary antibodies (Experiments 2 and 3)
Method: Two assays (Experiment 2 and 3) were performed to assess the binding of the secondary antibody to the sdAbs. A similar ELISA method was utilized except the sdAbs were directly coated onto the assay plate at a concentration of 1 μg/mL. Plates were incubated overnight at 2-8° C. After the incubation, plates were washed (3×) and blocked (3% BSA in PBS) for at least one hour at room temperature.
After removal of the blocking buffer and washing (3×), the secondary antibodies, either rabbit anti-llama biotinylated antibody or his-probe (H-3) biotin labeled antibody at was then added at a 1:5,000 dilution to each well and incubated with shaking for at least one hour at room temperature. Only the rabbit anti-llama biotinylated antibody was used in Experiment 2. Both antibodies were run in parallel in Experiment 3.
After the incubation with secondary antibody, the plates were again washed (3×) and HRP at a 1:50,000 dilution was added to each well. Plates were incubated with shaking for at least one hour at room temperature. One last wash (3×) was performed followed by the addition of TMB substrate and plates were incubated at room temperature. For the anti-llama biotinylated antibody stop solution was added to halt the colorimetric reaction at 10 minutes. The his-probe (H-3) biotin labeled antibody was allowed to incubate for 20 minutes prior to stopping. The absorbance at 450 nm was measured as before.

[2] = system: MCF-7 human breast tumor xenograft; conditions: for Tumor Volume TV (mm^3), group Mean / Tumor caliper measurement W (mm), individual animal / Tumor Volume TV (mm^3), individual animal / Tumor caliper measurement L (mm), individual animal: 1 mg/kg ip tid × 14
[3] = 1 mg/kg ip tid × 14 first Day 2 doses

Anti-STAT3 VHH13: anti-STAT3 single domain antibody, SEQ ID NO:3; bacterially produced form referred to as SBT-100
Mean Abs (MDA-MB-468 cells; 0.39 μg/ml): 0.311
% Inhibition (MDA-MB-468 cells; 3.13 μg/ml): 11.9%
Mean Abs (MDA-MB-468 cells; 3.13 μg/ml): 0.223
% Inhibition (MDA-MB-468 cells; 6.25 μg/ml): 9.1%
Mean Abs (MDA-MB-468 cells; 6.25 μg/ml): 0.230
% Inhibition (MDA-MB-468 cells; 25 μg/ml): 73.5%
Mean Abs (MDA-MB-468 cells; 25 μg/ml): 0.067
% Inhibition (MDA-MB-468 cells; 50 μg/ml): 83.4%
Mean Abs (MDA-MB-468 cells; 50 μg/ml): 0.042
% Inhibition (MDA-MB-468 cells; 100 μg/ml): 85.0%
Mean Abs (MDA-MB-468 cells; 100 μg/ml): 0.038
% Inhibition (MDA-MB-468 cells; 200 μg/ml): 84.4%
Mean Abs (MDA-MB-468 cells; 200 μg/ml): 0.040
Absorbance ± S.E. (SJSA cells; 25 μg/ml): 1.36 ± 0.09
Absorbance ± S.E. (SJSA cells; 50 μg/ml): 0.90 ± 0.04
Absorbance ± S.E. (SJSA cells; 100 μg/ml): 0.27 ± 0.01
Absorbance ± S.E. (SJSA cells; 200 μg/ml): 0.26 ± 0.01
IC50 (SJSA cells; SJSA cells): 51 µg/mL
Absorbance ± S.E. (U87 mg cells; 25 μg/ml): 0.687 ± 0.03
% Inhibition (U87 mg cells; 50 μg/ml): 18%
Absorbance ± S.E. (U87 mg cells; 50 μg/ml): 0.456 ± 0.01
% Inhibition (U87 mg cells; 100 μg/ml): 51%
Absorbance ± S.E. (U87 mg cells; 100 μg/ml): 0.271 ± 0.02
% Inhibition (U87 mg cells; 200 μg/ml): 62%
Absorbance ± S.E. (U87 mg cells; 200 μg/ml): 0.211 ± 0.03
IC50 (U87 mg cells; U87 mg cells): 65 µg/mL
Absorbance ± S.E. (U87 mg cells; […]): 0.702 ± 0.04
internalization, anti-His tag staining (MDA-MB 231 cells): positive cytoplasmic staining
internalization, anti-His tag staining (PANC-1 cells): positive cytoplasmic staining
binding to KRAS ligand (human KRAS): bound
OD450 Values ([1]; His-probe (H-3), Experiment 3, stored 1:100 dilution of sdAb): 0.360
OD450 Values ([1]; Rabbit anti-Llama Secondary Antibody, Experiment 2, sdAb coated at 1 μg/mL): 1.313
OD450 Values ([1]; Rabbit anti-Llama Secondary Antibody, Experiment 3, stored 1:100 dilution of sdAb): 0.363
% TGD [2, 3]: 42%
Median TTE [2, 3]: 32.9
T-C [2, 3]: 9.7
Tumor Volume TV (mm^3), group Mean ([2]; Day 1): 117 mm^3
Tumor caliper measurement W (mm), individual animal ([2]; Day 1): 6 mm
Tumor Volume TV (mm^3), individual animal ([2]; Day 1, 1 mg/kg): 108 mm^3 (2×) and 126 mm^3 (2×)
Tumor caliper measurement L (mm), individual animal ([2]; Day 1, 1 mg/kg): 6 mm (2×) and 7 mm (2×)
Tumor Volume TV (mm^3), group Mean ([2]; Day 4): 155.3 mm^3
Tumor Volume TV (mm^3), individual animal ([2]; Day 4, 1 mg/kg): 196 mm^3 and 126 mm^3 and 144 mm^3
Tumor caliper measurement L (mm), individual animal ([2]; Day 4, 1 mg/kg): 8 mm (2×) and 7 mm
Tumor caliper measurement W (mm), individual animal ([2]; Day 4, 1 mg/kg): 7 mm and 6 mm (2×)
Tumor Volume TV (mm^3), group Mean ([2]; Day 8): 253.7 mm^3
Tumor Volume TV (mm^3), individual animal ([2]; Day 8, 1 mg/kg): 320 mm^3 and 196 mm^3 and 245 mm^3
Tumor caliper measurement L (mm), individual animal ([2]; Day 8, 1 mg/kg): 8 mm
Tumor caliper measurement W (mm), individual animal ([2]; Day 8, 1 mg/kg): 7 mm
Tumor Volume TV (mm^3), group Mean ([2]; Day 11): 307 mm^3
Tumor Volume TV (mm^3), individual animal ([2]; Day 11, 1 mg/kg): 405 mm^3 and 196 mm^3 and 320 mm^3
Tumor caliper measurement L (mm), individual animal ([2]; Day 11, 1 mg/kg): 8 mm
Tumor caliper measurement W (mm), individual animal ([2]; Day 11, 1 mg/kg): 9 mm and 7 mm
Tumor Volume TV (mm^3), group Mean ([2]; Day 15): 346.5 mm^3
Tumor Volume TV (mm^3), individual animal ([2]; Day 15, 1 mg/kg): 405 mm^3 and 288 mm^3
Tumor caliper measurement L (mm), individual animal ([2]; Day 15, 1 mg/kg): 9 mm
Tumor caliper measurement W (mm), individual animal ([2]; Day 15, 1 mg/kg): 9 mm
Tumor Volume TV (mm^3), group Mean ([2]; Day 18): 346.5 mm^3
Tumor Volume TV (mm^3), individual animal ([2]; Day 18, 1 mg/kg): 405 mm^3 and 288 mm^3
Tumor caliper measurement L (mm), individual animal ([2]; Day 18, 1 mg/kg): 9 mm
Tumor caliper measurement W (mm), individual animal ([2]; Day 18, 1 mg/kg): 9 mm
Tumor Volume TV (mm^3), group Mean ([2]; Day 22): 477.5 mm^3
Tumor Volume TV (mm^3), individual animal ([2]; Day 22, 1 mg/kg): 550 mm^3 and 405 mm^3
Tumor caliper measurement L (mm), individual animal ([2]; Day 22, 1 mg/kg): 11 mm
Tumor caliper measurement W (mm), individual animal ([2]; Day 22, 1 mg/kg): 9 mm
Tumor Volume TV (mm^3), group Mean ([2]; Day 25): 634.5 mm^3
Tumor Volume TV (mm^3), individual animal ([2]; Day 25, 1 mg/kg): 864 mm^3 and 405 mm^3
Tumor caliper measurement L (mm), individual animal ([2]; Day 25, 1 mg/kg): 12 mm
Tumor caliper measurement W (mm), individual animal ([2]; Day 25, 1 mg/kg): 12 mm and 9 mm
Tumor Volume TV (mm^3), group Mean ([2]; Day 29): 799.3 mm^3
Tumor Volume TV (mm^3), individual animal ([2]; Day 29, 1 mg/kg): 1099 mm^3 and 500 mm^3
Tumor caliper measurement L (mm), individual animal ([2]; Day 29, 1 mg/kg): 13 mm
Tumor caliper measurement W (mm), individual animal ([2]; Day 29, 1 mg/kg): 13 mm
Tumor Volume TV (mm^3), group Mean ([2]; Day 32): 500 mm^3
Tumor Volume TV (mm^3), individual animal ([2]; Day 32): 500 mm^3
Tumor Volume TV (mm^3), group Mean ([2]; Day 36): 864 mm^3
Tumor Volume TV (mm^3), individual animal ([2]; Day 36): 864 mm^3
Tumor caliper measurement L (mm), individual animal ([2]; Day 36): 12 mm
Tumor caliper measurement W (mm), individual animal ([2]; Day 36): 12 mm
Tumor Volume TV (mm^3), group Mean ([2]; Day 39): 1098.5 mm^3
Tumor Volume TV (mm^3), individual animal ([2]; Day 39): 1099 mm^3
Tumor caliper measurement L (mm), individual animal ([2]; Day 39): 13 mm
Tumor caliper measurement W (mm), individual animal ([2]; Day 39): 13 mm
